Test results published in patent publication US20060166992A1, “Heterocyclically substituted imidazotriazines” (Bayer Healthcare A G, priority 2002, published 2006).
pIC50: −log10 of the molar value.

What was measured:
PDE 10A = molecular target: T1, PDE 10A (Homo sapiens, UniProt Q9Y233); test: Inhibition of PDE 10A (scintillation proximity assay, [3H]cAMP substrate); type: biochemical; settings: recombinant full-length PDE 10A expressed in Sf9 insect cells; 60 min at 20° C.
T1 construct: is expressed recombinantly in full length in Sf9 insect cells; made in house; host or cells: Sf9 insect cells (Bac-to-Bac baculovirus expression system)
Experimental: PDE 10A (WO 01/29 199, FIG. 1A) is expressed recombinantly in full length in Sf9 insect cells (Invitrogen, Carlsbad, Calif.) with the aid of the Bac-to-Bac™ Baculovirus expression system from Life Technologies (Gaithersburg, Md.). 48 h after infection, the cells are harvested and suspended in 20 ml (per 11 of culture) of lysis buffer (50 mM tris HCl, pH 7.4, 50 mM NaCl, 1 mM MgCl2, 1.5 mM EDTA, 10% glycerol plus 20 μl of Protease Inhibitor Cocktail Set II [CalBiochem, La Jolla, Calif. USA]). The cells are treated with ultrasound at 4° C. for 1 minute and subsequently centrifuged at 10 000 rpm for 30 minutes at 4° C. The supernatant (PDE 10A preparation) was collected and stored at −20° C.
The test substances are dissolved in 100% DMSO for the determination of their in vitro action on PDE 10A and serially diluted. Typically, dilution series from 200 μM to 1.6 μM are prepared (resulting final concentrations in the test: 4 μM to 0.032 μM). 2 μl of the diluted substance solutions in each case are introduced into the hollows of microtiter plates (Isoplate; Wallac Inc., Atlanta, Ga.). Subsequently, 50 μl of a dilution of the PDE 10A preparation described above are added. The dilution of the PDE 10A preparation is chosen such that during the later incubation less than 70% of the substrate is reacted (typical dilution: 1:10 000; dilution buffer: 50 mM tris/HCl pH 7.5, 8.3 mM MgCl2, 1.7 mM EDTA, 0.2% BSA). The substrate, [5′,8-^3H] adenosine 3′,5′-cyclic phosphate (1 μCi/μl; Amersham Pharmacia Biotech., Piscataway, N.J.) is diluted 1:2000 with assay buffer (50 mM tris/HCl pH 7.5, 8.3 mM MgCl2, 1.7 mM EDTA) to a concentration of 0.0005 μCi/μl. The enzyme reaction is finally started by addition of 50 μl (0.025 μCi) of the diluted substrate. The test batches are incubated for 60 min at 20° C. and the reaction is stopped by addition of 25 μl of a suspension containing 18 mg/ml of Yttrium Scintillation Proximity Beads (Amersham Pharmacia Biotech., Piscataway, N.J.). The microtiter plates are sealed using a film and allowed to stand for 60 min at 20° C. Subsequently, the plates are measured for 30 s per hollow in a Microbeta scintillation counter (Wallac Inc., Atlanta, Ga.). IC50 values are determined by means of graphic plotting of the substance concentration against the percentage inhibition.
The PDE 10A-inhibiting action of the compounds according to the invention may be shown by the following examples: […]

haloperidol catalepsy [1] = settings: described in EP-A 1 250 923; cited from earlier work
haloperidol catalepsy [2] = test: Catalepsy test on rats (potentiation of haloperidol catalepsy); type: in vivo; settings: 3 mg/kg intraperitoneal together with haloperidol (0.3 mg/kg s.c.), significant
Experimental: The period of time which elapses up to the correction of an imposed position can be used as a measure of the intensity of catalepsy.
A low dose of haloperidol (0.3 mg/kg s.c.) is given on its own 30 min before the catalepsy test or administered together with the compound. In order to measure the cataleptic behavior, both forepaws of the rat are put onto a block of wood of 9 cm height and 5.5 cm width×5.5 cm depth. The time which elapses until an animal pulls its forepaws down from the block again is recorded as the duration of catalepsy. All rats are taken from the block of wood after 60 seconds at the latest. The data acquired from each treatment group (10 animals in each case) are analyzed statistically by means of variance analysis (ANOVA).

T1 sequence (Q9Y233 1-779 isoform Q9Y233-1): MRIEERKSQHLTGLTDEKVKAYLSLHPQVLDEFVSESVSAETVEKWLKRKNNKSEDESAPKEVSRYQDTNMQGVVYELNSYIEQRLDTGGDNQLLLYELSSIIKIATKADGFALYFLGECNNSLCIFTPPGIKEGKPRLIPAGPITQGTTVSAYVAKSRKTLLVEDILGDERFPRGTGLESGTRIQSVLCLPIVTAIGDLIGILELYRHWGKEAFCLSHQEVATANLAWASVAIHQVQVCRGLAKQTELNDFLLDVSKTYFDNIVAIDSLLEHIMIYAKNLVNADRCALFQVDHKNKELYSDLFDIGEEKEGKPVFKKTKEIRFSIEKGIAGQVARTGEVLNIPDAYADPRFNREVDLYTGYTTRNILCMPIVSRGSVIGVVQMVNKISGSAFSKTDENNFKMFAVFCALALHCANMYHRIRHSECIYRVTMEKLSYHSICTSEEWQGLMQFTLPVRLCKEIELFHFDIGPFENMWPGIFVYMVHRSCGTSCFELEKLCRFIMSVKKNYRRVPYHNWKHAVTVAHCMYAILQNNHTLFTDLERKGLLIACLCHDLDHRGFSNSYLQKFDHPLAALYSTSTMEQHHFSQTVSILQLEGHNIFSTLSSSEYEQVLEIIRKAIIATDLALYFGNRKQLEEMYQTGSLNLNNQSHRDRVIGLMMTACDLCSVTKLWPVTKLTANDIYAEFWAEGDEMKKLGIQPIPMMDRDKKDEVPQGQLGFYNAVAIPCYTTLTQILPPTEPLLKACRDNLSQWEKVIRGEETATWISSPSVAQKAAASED

| Compound | pIC50 (PDE 10A) | effect on haloperidol catalepsy (haloperidol catalepsy [1]) | increase in the duration of catalepsy (haloperidol catalepsy [2]) [%] |
| --- | --- | --- | --- |
| COc1cc(Nc2nc(-c3cnc(C)s3)nn3c(C)nc(C)c23)cc(OC)c1OC [Example 12, 5,7-Dimethyl-2-(2-methyl-1,3-thiazol-5-yl)-N-(3,4,5-trimethoxyphenyl)imidazo-[5,1-f][1,2,4]triazin-4-amine] | 7.03 | – | – |
| COc1ccc(Cc2nccc3cc(OC)c(OC)cc23)cc1OC [papaverine] | – | potentiation of haloperidol catalepsy | – |
| COc1cc(Nc2nc(-c3ccncc3)nn3c(C)nc(C)c23)cc(OC)c1OC [Example 14] | 6.82 | – | – |
| COc1cc(Oc2nc(-c3cccnc3)nn3c(C(C)C)nc(C)c23)cc(OC)c1OC [Example 10, 7-isopropyl-5-methyl-2-(3-pyridinyl)-4-(3,4,5-trimethoxyphenoxy)imidazo[5,1-f][1,2,4]triazine] | 8.10 | – | – |

Continued by rising pIC50 (PDE 10A), values first:

| pIC50 (PDE 10A) | Compound | effect on haloperidol catalepsy (haloperidol catalepsy [1]) | increase in the duration of catalepsy (haloperidol catalepsy [2]) [%] |
| --- | --- | --- | --- |
| 7.42 | COc1cc(Oc2nc(-c3ccc(C)nc3)nn3c(C)nc(C)c23)cc(OC)c1OC [Example 9] | – | – |
| 7.52 | COc1cc(Nc2nc(-c3cccnc3)nn3c(C)nc(C)c23)cc(OC)c1OC [Example 16] | – | 103 |
